# Assays:
# PKC in HeLa cells = assay: Microinjection studies in TPA-stimulated living HeLa cells; format: cell-based; settings: co-injected with peptide 2; 20 μM estimated intracellular concentration
# Method: Microinjection Studies-Subconfluent, serum-starved (24 hr), HeLa cells were cultured on 22 mm coverslips in DMEM in a humidified atmosphere containing 5% CO2. […] Microinjections were performed with an Eppendorf (Brinkman Instruments, Westbury, N.Y.) 5246 microinjection apparatus mounted on the microscope inside the environmental chamber. The peptide was estimated to be diluted 10-fold upon microinjection, using the equation for volume (V) flow through a capillary tube:
# [formula] where p is the difference in pressure at the ends of the tube (290 hPa), r the radius (0.05 μm) and l the length (10 μm) of the tube, η the viscosity of the injected solution (0.69×10^−2 g/cm-sec), and t the total injection time (0.3 sec). The average volume of a fibroblast was taken as 2 pL.^18 12-O-tetradecanoyl phorbol-13-acetate (TPA) (1 μM) was added to the media following microinjection to stimulate PKC activity. […] Fluorescence intensity measurements were corrected using values from a standard photobleaching curve generated from control experiments with microinjected HeLa cells that had not been treated with TPA. […]
# PKC = settings: cited from earlier work
structure (smiles),measurement,setting,value
CN(C)CCCn1cc(C2=C(c3c[nH]c4ccccc34)C(=O)NC2=O)c2ccccc21 [GF 109203X],effect of inhibitor on TPA-induced enhancement in cellular fluorescence,PKC in HeLa cells,effectively blocks the TPA-induced enhancement in cellular fluorescence
same,Ki,PKC,low nanomolar range

# Reference: patent US7759459B2, “Fluorescent assays for protein kinases” (Albert Einstein College of Medicine of Yeshiva University, priority 2003, dated 2010)
